Source: PubChem BioAssay (NCI)
“And” between values parts separate entries of the source, which are not always exact repeats. Equal entries are not always repeated.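 Growth conditions: 96-well plates. Treatment: test compound, 48 hours, 5 concentrations. Analysis: linear interpolation between bracketing concentrations; unreached endpoints set to highest concentration. GI50 marks 50% less growth. TGI: concentration producing complete growth inhibition.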

Tests used:
Experiment in all cases: NCI anticancer screen, dose series, 48 h
[1] = test system: EKVX NSCLC
[2] = test system: SK-MEL-5 melanoma
[3] = test system: PC-3 prostate
[4] = test system: NCI-H522 lung
[5] = test system: SF-268 CNS
[6] = test system: MOLT-4 leukemia
[7] = test system: HCT-15 colon
[8] = test system: SF-295 CNS
[9] = test system: HOP-92 NSCLC
[10] = test system: MALME-3M melanoma

`COc1ccc(-c2nnc3n(C)c(=O)c4ccccc4n23)cc1N` showed a GI50 [1] of 5.87 µM, a TGI [1] greater than 100 µM and a GI50 [2] of 0.0598 µM. The TGI [2] was greater than 100 µM, the GI50 [3] was 2.65 µM and the TGI [3] was greater than 100 µM. The GI50 [4] was 0.0306 µM, the TGI [4] was 42.6 µM and the GI50 [5] was 7.17 µM. It also gave a TGI [5] greater than 100 µM, a GI50 [6] of 3.92 µM and a TGI [6] greater than 100 µM. It also gave a GI50 [7] of 0.0498 µM, a TGI [7] greater than 100 µM and a GI50 [8] of 0.0499 µM. It also gave a TGI [8] greater than 100 µM, a GI50 [9] of 10.9 µM and a TGI [9] of 99.5 µM.
For `COc1cc(C(=O)N2CCN(C(=O)c3cc(OC)c(OC)c(OC)c3)C2=S)cc(OC)c1OC`, the GI50 [3] was 15 µM, the TGI [3] was 32.2 µM and the GI50 [4] was 3.67 µM. It also gave a TGI [4] of 16.3 µM, a GI50 [5] of 11.5 µM and a TGI [5] of 26.1 µM. The GI50 [6] was 23.5 µM, the TGI [6] was 58.4 µM and the GI50 [7] was 20.2 µM. The TGI [7] was 47.4 µM, the GI50 [10] was 13.4 µM and the TGI [10] was 27 µM. For the same compound, the GI50 [8] was 19 µM, the TGI [8] was 43.7 µM and the GI50 [9] was 16.1 µM. It also gave a TGI [9] of 34.3 µM.
Compound `COC(=O)c1ccc2c(c1)C(=O)c1c-2n(CCCN=[N+]=[N-])c(=O)c2cc(OC)c(OC)cc12` has a GI50 [1] greater than 100 µM, a TGI [1] greater than 100 µM and a GI50 [2] greater than 100 µM. The TGI [2] was greater than 100 µM, the GI50 [3] was greater than 100 µM and the TGI [3] was greater than 100 µM. For the same compound, the GI50 [4] was greater than 100 µM, the TGI [4] was greater than 100 µM and the GI50 [5] was greater than 100 µM. The TGI [5] was greater than 100 µM, the GI50 [6] was 3.82 µM and the TGI [6] was 19.1 µM. It also gave a GI50 [7] greater than 100 µM, a TGI [7] greater than 100 µM and a GI50 [10] greater than 100 µM. For the same compound, the TGI [10] was greater than 100 µM, the GI50 [8] was greater than 100 µM and the TGI [8] was greater than 100 µM.
`CC1(C)COC(c2cccc3c2C(=O)c2cccc(Cl)c2-3)=N1` showed a TGI [1] greater than 100 µM, a TGI [2] of 73.4 µM and a TGI [4] greater than 100 µM. For the same compound, the TGI [5] was greater than 100 µM, the TGI [6] was greater than 100 µM and the TGI [7] was greater than 100 µM. The TGI [10] was greater than 100 µM and the TGI [8] was greater than 100 µM.
With `NC1CCN(Cc2ccccc2)CC1` the GI50 [2] was 24.2 µM, the TGI [2] was greater than 100 µM and the GI50 [3] was greater than 100 µM. The TGI [3] was greater than 100 µM, the GI50 [4] was greater than 100 µM and the TGI [4] was greater than 100 µM. It also gave a GI50 [5] greater than 100 µM, a TGI [5] greater than 100 µM and a GI50 [6] greater than 100 µM. It also gave a TGI [6] greater than 100 µM, a GI50 [7] greater than 100 µM and a TGI [7] greater than 100 µM. It also gave a GI50 [8] greater than 100 µM, a TGI [8] greater than 100 µM and a GI50 [9] greater than 100 µM. The TGI [9] was greater than 100 µM.
`O=C(Nc1cccc(C(F)(F)F)c1)c1ccc(NC2=C(Cl)C(=O)N(Cc3ccc(Cl)cc3Cl)C2=O)cc1` showed a GI50 [1] of 20.3 µM, a TGI [1] of 48.6 µM and a GI50 [2] of 1.78 µM. For the same compound, the TGI [2] was 3.5 µM, the GI50 [3] was 4.64 µM and the TGI [3] was 15.2 µM. For the same compound, the GI50 [4] was 3.34 µM, the TGI [4] was 10.2 µM and the GI50 [5] was 11 µM. The TGI [5] was 35.5 µM, the GI50 [6] was 1.31 µM and the TGI [6] was 6.8 µM. It also gave a GI50 [7] of 2.31 µM, a TGI [7] of 5.66 µM and a GI50 [8] of 13 µM. For the same compound, the TGI [8] was 35 µM, the GI50 [9] was 4.71 µM and the TGI [9] was 16.2 µM.
Compound `CC12CCC(=O)C[C@H]1CCC(OC=O)C2Br` (stereo partly drawn) has a TGI [2] greater than 100 µM, a TGI [4] greater than 100 µM and a TGI [5] greater than 100 µM. It also gave a TGI [6] greater than 100 µM, a TGI [7] greater than 100 µM and a TGI [10] greater than 100 µM. It also gave a TGI [8] greater than 100 µM and a TGI [9] greater than 100 µM.
With `COC(=O)C1CCCC2(C1)OCCO2` (stereo not drawn) the TGI [1] was greater than 100 µM, the TGI [2] was greater than 100 µM and the TGI [4] was greater than 100 µM. The TGI [5] was greater than 100 µM, the TGI [6] was greater than 100 µM and the TGI [7] was greater than 100 µM. The TGI [10] was greater than 100 µM, the TGI [8] was greater than 100 µM and the TGI [9] was greater than 100 µM.
`C/C(CC(=O)Nc1ccc(C)c(C)c1)=N\N(c1ccccc1)c1ccccc1` was tested, and the TGI [1] was greater than 100 µM, the TGI [2] was greater than 100 µM and the TGI [4] was 29.7 µM. It also gave a TGI [5] greater than 100 µM, a TGI [6] greater than 100 µM and a TGI [7] greater than 100 µM. For the same compound, the TGI [10] was greater than 100 µM, the TGI [8] was greater than 100 µM and the TGI [9] was greater than 100 µM.
`COc1cc(Cl)cc(-c2nn(-c3cccc(NC(=O)c4ccc(N5CCOCC5)c(C(F)(F)F)c4)c3)cc2-c2ccncc2)c1` showed a GI50 [2] of 16.5 µM, a TGI [2] greater than 100 µM and a GI50 [3] of 3.3 µM. For the same compound, the TGI [3] was greater than 100 µM, the GI50 [4] was 4.72 µM and the TGI [4] was greater than 100 µM. It also gave a GI50 [5] greater than 100 µM, a TGI [5] greater than 100 µM and a GI50 [6] of 5.49 µM. The TGI [6] was greater than 100 µM, the GI50 [7] was 3.25 µM and the TGI [7] was greater than 100 µM. The GI50 [10] was 28.3 µM, the TGI [10] was greater than 100 µM and the GI50 [8] was 2.21 µM. The TGI [8] was 14.8 µM.
With `CC(=O)Nc1ccc(-c2csc(Nc3cccc(-c4csc(C)n4)c3)n2)cc1` the GI50 [1] was 4.99 µM, the TGI [1] was 22.2 µM and the GI50 [2] was 0.26 µM. It also gave a TGI [2] of 8.62 µM, a GI50 [3] of 1.67 µM and a TGI [3] greater than 19.9 µM. The GI50 [4] was 7.72 µM, the TGI [4] was greater than 28 µM and the GI50 [5] was 4.38 µM. It also gave a TGI [5] greater than 27.1 µM, a TGI [6] greater than 50 µM and a GI50 [7] of 0.289 µM. The TGI [7] was greater than 27.4 µM, the GI50 [8] was 0.907 µM and the TGI [8] was greater than 13.2 µM. For the same compound, the TGI [9] was greater than 23.1 µM.
For `COC(=O)/C(C#N)=C1\N=NNN1c1ccc(OC)cc1`, the TGI [1] was greater than 100 µM, the TGI [2] was greater than 100 µM and the TGI [4] was greater than 100 µM. It also gave a TGI [6] greater than 100 µM, a TGI [7] greater than 100 µM and a TGI [10] greater than 100 µM. For the same compound, the TGI [8] was greater than 100 µM and the TGI [9] was greater than 100 µM.
With `CCOC(=O)N[C@H]1CCc2cc(OC)c(OC)c(OC)c2-c2ccc(SC)c(=O)cc21` the GI50 [1] was less than 0.01 µM, the TGI [1] was greater than 100 µM and the TGI [3] was greater than 100 µM. For the same compound, the TGI [5] was 47.2 µM and > 100 µM, the TGI [6] was greater than 100 µM and the TGI [7] was greater than 100 µM. It also gave a GI50 [10] of less than 0.0122 µM, a TGI [10] greater than 100 µM and a GI50 [9] of 0.0198 µM. The TGI [9] was greater than 100 µM.
`CCOC(=O)c1nc2c(OC)nn(O)cc-2c1[N+](=O)[O-]` showed a TGI [1] of 36.4 µM, a TGI [4] of 36.9 µM and a TGI [5] of 94.9 µM. For the same compound, the TGI [6] was 75.1 µM, the TGI [7] was 36.2 µM and the TGI [10] was 32.4 µM. It also gave a TGI [8] greater than 100 µM.
With `Cc1nc(Nc2ccc(Cl)cc2)sc1C(=O)NNC(=S)NN` the TGI [1] was 46.8 µM, the TGI [2] was 32.9 µM and the TGI [4] was 34.8 µM. The TGI [5] was 48.5 µM, the TGI [6] was 58.6 µM and the TGI [7] was 45.5 µM. It also gave a TGI [10] of 35.5 µM, a TGI [8] of 34.1 µM and a TGI [9] of 43.2 µM.
Compound `O=C(Nc1cccc(Cl)c1)C(=O)C(C(=O)c1ccc2ccccc2c1)C1OC(=O)c2ccccc21` (stereo not drawn) has a TGI [1] greater than 100 µM, a TGI [2] of 30.3 µM and a TGI [5] of 57.5 µM. It also gave a TGI [6] of 23.6 µM, a TGI [10] of 30.8 µM and a TGI [9] of 54.3 µM.
`Cc1ccc(C)c(NC(=O)c2cccc([N+](=O)[O-])c2O)c1` showed a TGI [1] greater than 100 µM, a TGI [2] of 25.2 µM and a TGI [4] of 67.2 µM. The TGI [5] was greater than 100 µM, the TGI [6] was greater than 100 µM and the TGI [7] was greater than 100 µM. For the same compound, the TGI [10] was 81.6 µM, the TGI [8] was 41.5 µM and the TGI [9] was 41.3 µM.
`N#C/C(=C\c1ccc2ccccc2c1)C(=O)c1ccccc1` showed a TGI [1] greater than 100 µM, a TGI [2] greater than 78.5 µM and a TGI [3] greater than 100 µM. It also gave a TGI [4] greater than 100 µM, a TGI [5] greater than 100 µM and a TGI [6] of 68.8 µM. The TGI [7] was greater than 100 µM, the TGI [10] was greater than 100 µM and the TGI [8] was greater than 100 µM.
In the case of `Cc1cc2c(=O)c3ccccc3[nH]c2c(C(N)=O)c1C`, the TGI [1] is reported as greater than 100 µM, the TGI [2] is reported as greater than 100 µM and the TGI [4] is reported as greater than 100 µM. For the same compound, the TGI [5] was greater than 100 µM, the TGI [6] was greater than 100 µM and the TGI [7] was greater than 100 µM. For the same compound, the TGI [10] was greater than 100 µM and the TGI [8] was greater than 100 µM.
